Laboratory results taken from patent US20050282781A1, “Compositions of stable bioactive metabolites of docosahexaenoic (DHA) and eicosapentaenoic (EPA) acids” (priority 2004, published 2005).

Tests used:
[1] = test system: increased 5-HT release activity in MDMA-treated rats; test: MDMA-withdrawal increased 5-HT release; format: in vivo, rat; details: post-treatment in MDMA-treated rats
Excerpt: EPA or DHA would not be truly effective for this purpose. There is evidence that presynaptic serotonergic, but not dopaminergic, mechanisms are involved in the enactogen-like discriminative stimulus properties of MDMA. MDMA increases the number of rat brain 5-hydroxytryptamine 5-HT1A receptors and induces increased release of 5-HT from presynaptic terminals. The MDMA-withdrawal syndrome includes this increased 5-HT release activity in rats.

[2] = test system: mice; test: Forced swimming immobility (behavioral despair), anti-stress; format: in vivo; details: in these doses (50 mg/Kg p.o. × 4 days); statistically insignificant
Method: Rodents when forced to swim in a restricted place, from which they cannot escape, become immobile after an initial period of vigorous activity. The observed immobility signified behavioral despair, resembling a state of mental depression. Behavioral depression is a common consequence of stress. The significant anti-stress effects of DBPs (1 and 2, Scheme-II), was assessed by the considerable reduction in the period of immobility in the test compound treated mice.

[3] = L-DOPA-sparing by singlet oxygen quenching (Rose Bengal plates); format: biochemical; details: for Percent inhibition of L-DOPA oxidation (mean ± SEM): 30 min exposure to 1O2, Pi buffer pH 7.2
Excerpt: A comparative study of the antioxidant defence provided by the three compounds, DBPs, EPA and DHA, was made. The reason for selection of this test (antioxidant-profile) is, that, agents that can regulate systemic production and interactions of reactive oxygen species, like singlet oxygen, superoxide radical and hydroxyl radical, can provide surveillance umbrella to living organisms against ‘oxidative stress’.
The singlet oxygen was generated on Rose Bengal-coated glass plates by illuminating with a 150-W spot-light at a distance of 30 cm, through water to filter infra-red light (Ghosal, S. and Bhattacharya, S. K. (1996). Antioxidant defence by shilajit, Indian J. Chem., 35B, 127-132).

CC/C=C\C/C=C\C/C=C\C/C=C\C/C=C\CCCC(=O)O [EPA, cis-5,8,11,14,17-Eicosapentaenoic acid]
prevention of MDMA-withdrawal increased 5-HT release [1]: not
anti-stress response [2]: very weak anti-stress response
antioxidant effect (1O2 quenching) ([3]; 0.1-0.4 mM): only weak antioxidant effect
Percent inhibition of L-DOPA oxidation (mean ± SEM) ([3]; L-DOPA:test compound 1:0.1 mM): 7.7 ± 1.3%
Percent inhibition of L-DOPA oxidation (mean ± SEM) ([3]; L-DOPA:test compound 1:0.4 mM): 11.3 ± 3.2%
